Here are results for one compound from ChEMBL document CHEMBL5154828 (J Med Chem, 2022).

As usually defined, the EC50 is the concentration that produces a half-maximal response. A low value points to higher potency in that assay. Usually IC50 stands for the point on the concentration scale where inhibition reaches its midpoint. The AUC(0-t) is exposure summed from dosing to a finite time, without extrapolation to infinity. A word on the MRT: it is the average time that molecules of a dose stay in the body. Broadly, the Kp is tissue or fluid exposure divided by exposure in the circulation.

Series [1] can be described thus: Ratio of drug concentration in rat blood to plasma at 20 mg/kg, po measured after 2 hrs. The conditions noted are these: blood and plasma.
The target of a further series is T1, Estrogen receptor (Homo sapiens, UniProt P03372).
T1 sequence (P03372 whole entry): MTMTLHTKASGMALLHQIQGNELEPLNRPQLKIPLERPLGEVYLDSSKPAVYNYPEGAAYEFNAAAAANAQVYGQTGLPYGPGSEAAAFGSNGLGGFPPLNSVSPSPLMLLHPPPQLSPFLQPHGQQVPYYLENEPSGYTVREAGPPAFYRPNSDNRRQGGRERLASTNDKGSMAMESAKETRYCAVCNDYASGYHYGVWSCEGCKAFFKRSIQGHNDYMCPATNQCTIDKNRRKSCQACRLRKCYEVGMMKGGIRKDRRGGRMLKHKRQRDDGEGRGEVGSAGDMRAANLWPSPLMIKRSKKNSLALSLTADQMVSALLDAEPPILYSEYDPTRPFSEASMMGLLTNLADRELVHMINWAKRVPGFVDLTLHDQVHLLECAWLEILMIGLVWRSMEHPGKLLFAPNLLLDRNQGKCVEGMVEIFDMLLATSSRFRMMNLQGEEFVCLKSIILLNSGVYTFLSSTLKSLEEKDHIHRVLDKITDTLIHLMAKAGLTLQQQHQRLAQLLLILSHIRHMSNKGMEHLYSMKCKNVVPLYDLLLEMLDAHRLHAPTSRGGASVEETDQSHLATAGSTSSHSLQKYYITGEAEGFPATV
The experiment in a line: Induction of ERalpha degradation in human MCF7 cells incubated for 24 hrs by Western blot analysis. Type of series: cell-based. For orientation: Immunoblotting shows a protein as a band on a membrane.

The target of a further series is Estrogen receptor beta (Homo sapiens, UniProt Q92731). Put plainly: Antagonist activity at ERbeta expressed in HEK293/Gal4 cells incubated for 24 hrs in presence of di-arylpropionitrile by luciferase reporter gene assay. (A reporter such as luciferase makes a cellular process visible.)
A short description of series [2]: AUC (0 to t) in ICR mouse at 2 mg/kg, iv measured up to 24 hrs by LC/MS/MS analysis. In kind it is ADME, organism-based. Set-up: dose 2 mg/kg, time < 24 hrs, route iv. The conditions noted are these: in vivo.
Series [3] can be described thus: MRT in ICR mouse at 5 mg/kg, po measured up to 24 hrs by LC/MS/MS analysis. The conditions noted are these: in vivo. Type of series: ADME, organism-based.
The next series has as its system T47D. Put plainly: Antiproliferative activity against human T47D cells assessed as inhibition of cell growth measured after 7 days by cell titre glo luminescence assay. In kind it is functional, cell-based. To be noted: time 7.0 day.
In the next series the test system is BT-474. Put plainly: Antiproliferative activity against human BT-474 cells assessed as inhibition of cell growth measured after 7 days by cell titre glo luminescence assay. In kind it is functional, cell-based. To be noted: time 7.0 day.
The target in series [4] is T2, Estrogen receptor (Homo sapiens) (UniProt P03372).
T2 sequence (whole entry): T1 sequence (P03372 whole entry)
Put plainly: Induction of ERalpha degradation in human CAMA-1 cells incubated 24 hrs by Western blot analysis. In kind it is cell-based. The conditions noted are these: dose 0.1-1000 nM, DDE = dose-dependent effect.

The nature of series [5]: Toxicity in athymic mouse xenografted with tamoxifen-sensitive human MCF7 cells assessed as body weight loss at 5 to 15 mg/kg, po qd incubated for 21 days. The conditions noted are these: in vivo, 504 h, dose 5-15 mg/kg, time 21 day. In kind it is organism-based.
Series [6] can be described thus: Drug concentration in rat brain at 20 mg/kg, po measured after 2 hrs. Type of series: ADME, organism-based. To be noted: read-out: Ct.
Series [7] can be described thus: Drug concentration in rat ovary at 20 mg/kg, po measured after 2 hrs. Type of series: ADME, organism-based, Female gonad. The conditions noted are these: female, read-out: Ct.
A short description of series [8]: Drug concentration in rat uterus at 20 mg/kg, po measured after 2 hrs. In kind it is ADME, organism-based. To be noted: female, read-out: Ct.
Series [9] in a line: Drug concentration in rat liver at 20 mg/kg, po measured after 2 hrs. Type of series: ADME, organism-based. The conditions noted are these: read-out: Ct.
Series [10] in a line: Drug concentration in rat kidney at 20 mg/kg, po measured after 2 hrs. Type of series: ADME, organism-based. To be noted: read-out: Ct.
Series [11] in a line: Ratio of drug concentration in rat kidney to plasma at 20 mg/kg, po measured after 2 hrs.

Activity calls are given as the source filed them. No cut-off for these calls is given here.

Estrogen receptor beta, sequence (Q92731 whole entry, the tested form may be a part): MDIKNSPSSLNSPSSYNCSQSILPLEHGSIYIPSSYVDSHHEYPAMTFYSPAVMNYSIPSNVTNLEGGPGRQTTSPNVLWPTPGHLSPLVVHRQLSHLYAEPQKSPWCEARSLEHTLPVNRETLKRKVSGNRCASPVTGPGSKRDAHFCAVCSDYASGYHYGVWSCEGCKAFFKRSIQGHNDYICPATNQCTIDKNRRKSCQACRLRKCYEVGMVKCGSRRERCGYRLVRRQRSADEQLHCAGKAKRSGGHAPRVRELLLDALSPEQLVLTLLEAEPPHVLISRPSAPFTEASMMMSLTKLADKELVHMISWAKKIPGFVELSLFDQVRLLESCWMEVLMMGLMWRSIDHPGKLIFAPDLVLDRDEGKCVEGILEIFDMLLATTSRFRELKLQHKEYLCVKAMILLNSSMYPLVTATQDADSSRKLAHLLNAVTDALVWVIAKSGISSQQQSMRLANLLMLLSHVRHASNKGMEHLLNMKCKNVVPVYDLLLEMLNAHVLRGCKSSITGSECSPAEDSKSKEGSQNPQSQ

Consider `CC(F)(F)c1cc(Cl)ccc1-c1sc2c(ccc3[nH]ncc32)c1Oc1ccc(OC2CN(CCCF)C2)cc1`, for which the blood plasma ratio at 2 h in series [1] came to 0.8. Moreover, at Estrogen receptor, the 50% effective concentration (EC50) is 1.1 nM. Besides, the IC50 at Estrogen receptor beta turned out to be 2.3 nM. In addition, in series [2], the AUC(0-t) at 24 h was found to be 4630 ng·h/mL. For the same compound, in [3], the MRT was 8.2 h. Further, the result with T47D and in the series on BT-474 was Active. The figures for the Activity entry in [4] and in series [5] were “Dde” and “Non-Toxic”, respectively. Besides, the concentration at 2 h worked out at 442 ng/mL in series [6]; 4420 ng/mL in series [7]; 2170 ng/mL in [8]; 212 µg/mL in series [9]; 7100 ng/mL in series [10]. The concentration ratio (Kp) at 2 h in series [11] was found to be 11.7.
